Key:
[1] = victivallis vadensis, 12 h, 2 µM
[2] = The drug is tested on Bifidobacterium breve strain: DSM20213 for biotransformation. The drug concentrations were measured before and after a 12-h incubation by liquid-chromatography-coupled mass spectrometry (LC–MS); conditions: 2 µM
[3] = anaerostipes sp., 12 h, 2 µM
[4] = The drug is tested on Bacteroides fragilis strain: T(B)9 for biotransformation. The drug concentrations were measured before and after a 12-h incubation by liquid-chromatography-coupled mass spectrometry (LC–MS); conditions: 2 µM
[5] = The drug is tested on Clostridium spiroforme strain: DSM1552 for biotransformation. The drug concentrations were measured before and after a 12-h incubation by liquid-chromatography-coupled mass spectrometry (LC–MS); conditions: thomasclavelia spiroformis, 2 µM
[6] = The drug is tested on Clostridium hathewayi strain: DSM13479 for biotransformation. The drug concentrations were measured before and after a 12-h incubation by liquid-chromatography-coupled mass spectrometry (LC–MS); conditions: hungatella hathewayi, 2 µM
[7] = The drug is tested on Bacteroides caccae strain: ATCC43185 for biotransformation. The drug concentrations were measured before and after a 12-h incubation by liquid-chromatography-coupled mass spectrometry (LC–MS); conditions: 2 µM
[8] = The drug is tested on Eubacterium biforme strain: DSM3989 for biotransformation. The drug concentrations were measured before and after a 12-h incubation by liquid-chromatography-coupled mass spectrometry (LC–MS); conditions: holdemanella biformis, 2 µM
[9] = The drug is tested on Proteus penneri strain: ATCC35198 for biotransformation. The drug concentrations were measured before and after a 12-h incubation by liquid-chromatography-coupled mass spectrometry (LC–MS); conditions: 2 µM
[10] = parabacteroides johnsonii, 12 h, 2 µM
Description: The drug is tested on Parabacteroides johnsonii strain: DSM18315 for biotransformation. The drug concentrations were measured before and after a 12-h incubation by liquid-chromatography-coupled mass spectrometry (LC–MS)

[11] = The drug is tested on Eubacterium rectale strain: ATCC33656 for biotransformation. The drug concentrations were measured before and after a 12-h incubation by liquid-chromatography-coupled mass spectrometry (LC–MS); conditions: agathobacter rectalis, 2 µM
[12] = The drug is tested on Providencia alcalifaciens strain: DSM30120 for biotransformation. The drug concentrations were measured before and after a 12-h incubation by liquid-chromatography-coupled mass spectrometry (LC–MS); conditions: 2 µM
[13] = The drug is tested on Salmonella typhimurium strain: LT2 for biotransformation. The drug concentrations were measured before and after a 12-h incubation by liquid-chromatography-coupled mass spectrometry (LC–MS); conditions: salmonella enterica subsp. enterica, 2 µM
[14] = clostridioides difficile, 12 h, 2 µM
Description: The drug is tested on Clostridium difficile strain: 120 for biotransformation. The drug concentrations were measured before and after a 12-h incubation by liquid-chromatography-coupled mass spectrometry (LC–MS)

[15] = The drug is tested on Eggerthella lenta strain: ATCC25559 for biotransformation. The drug concentrations were measured before and after a 12-h incubation by liquid-chromatography-coupled mass spectrometry (LC–MS); conditions: 2 µM

## CN1C(C(=O)Nc2ccccn2)=C(O)c2sccc2S1(=O)=O [TENOXICAM]
[1]
  Bacterial Biotransformation: Compound NOT metabolized
[2]
  Bacterial Biotransformation: Compound NOT metabolized
[3]
  Bacterial Biotransformation: Compound NOT metabolized
[4]
  Bacterial Biotransformation: Compound NOT metabolized
[5]
  Bacterial Biotransformation: Compound NOT metabolized
[6]
  Bacterial Biotransformation: Compound NOT metabolized
[7]
  Bacterial Biotransformation: Compound NOT metabolized
[8]
  Bacterial Biotransformation: Compound NOT metabolized
[9]
  Bacterial Biotransformation: Compound NOT metabolized
[10]
  Bacterial Biotransformation: Compound NOT metabolized
[11]
  Bacterial Biotransformation: Compound NOT metabolized

## COc1ccc(CCN(C)CCCC(C#N)(c2ccc(OC)c(OC)c2)C(C)C)cc1OC (configuration not stated)
[1]
  Bacterial Biotransformation: Compound NOT metabolized
[2]
  Bacterial Biotransformation: Compound NOT metabolized
[12]
  Bacterial Biotransformation: Compound NOT metabolized
[13]
  Bacterial Biotransformation: Compound metabolized
[3]
  Bacterial Biotransformation: Compound NOT metabolized
[4]
  Bacterial Biotransformation: Compound NOT metabolized
[7]
  Bacterial Biotransformation: Compound NOT metabolized
[8]
  Bacterial Biotransformation: Compound NOT metabolized
[9]
  Bacterial Biotransformation: Compound NOT metabolized

## CCCCC1=NC2(CCCC2)C(=O)N1Cc1ccc(-c2ccccc2-c2nnn[nH]2)cc1 [IRBESARTAN]
[1]
  Bacterial Biotransformation: Compound NOT metabolized
[14]
  Bacterial Biotransformation: Compound NOT metabolized
[3]
  Bacterial Biotransformation: Compound metabolized
[5]
  Bacterial Biotransformation: Compound metabolized
[6]
  Bacterial Biotransformation: Compound metabolized
[7]
  Bacterial Biotransformation: Compound NOT metabolized
[10]
  Bacterial Biotransformation: Compound metabolized
[11]
  Bacterial Biotransformation: Compound NOT metabolized

## Nc1c2c(nc3ccccc13)CCCC2 [TACRINE]
[2]
  Bacterial Biotransformation: Compound NOT metabolized
[14]
  Bacterial Biotransformation: Compound NOT metabolized
[13]
  Bacterial Biotransformation: Compound NOT metabolized
[3]
  Bacterial Biotransformation: Compound NOT metabolized
[5]
  Bacterial Biotransformation: Compound NOT metabolized
[6]
  Bacterial Biotransformation: Compound NOT metabolized
[7]
  Bacterial Biotransformation: Compound NOT metabolized
[9]
  Bacterial Biotransformation: Compound NOT metabolized
[11]
  Bacterial Biotransformation: Compound NOT metabolized

## O=c1[nH]c2ccccc2n1C1CCN(CCCC(c2ccc(F)cc2)c2ccc(F)cc2)CC1 [PIMOZIDE]
[1]
  Bacterial Biotransformation: Compound NOT metabolized
[2]
  Bacterial Biotransformation: Compound NOT metabolized
[13]
  Bacterial Biotransformation: Compound NOT metabolized
[3]
  Bacterial Biotransformation: Compound NOT metabolized
[7]
  Bacterial Biotransformation: Compound NOT metabolized
[10]
  Bacterial Biotransformation: Compound NOT metabolized
[11]
  Bacterial Biotransformation: Compound NOT metabolized

## CN1[C@@H]2CC[C@H]1C[C@@H](OC(=O)c1c[nH]c3ccccc13)C2 [TROPISETRON]
[1]
  Bacterial Biotransformation: Compound NOT metabolized
[2]
  Bacterial Biotransformation: Compound NOT metabolized
[3]
  Bacterial Biotransformation: Compound NOT metabolized
[7]
  Bacterial Biotransformation: Compound NOT metabolized
[10]
  Bacterial Biotransformation: Compound NOT metabolized
[15]
  Bacterial Biotransformation: Compound NOT metabolized
[11]
  Bacterial Biotransformation: Compound NOT metabolized

## CC(C)(C)NC[C@H](O)COc1nsnc1N1CCOCC1.O=C(O)/C=C\C(=O)O [TIMOLOL MALEATE]
[2]
  Bacterial Biotransformation: Compound NOT metabolized
[14]
  Bacterial Biotransformation: Compound NOT metabolized
[3]
  Bacterial Biotransformation: Compound NOT metabolized
[5]
  Bacterial Biotransformation: Compound NOT metabolized
[6]
  Bacterial Biotransformation: Compound NOT metabolized
[7]
  Bacterial Biotransformation: Compound NOT metabolized
[10]
  Bacterial Biotransformation: Compound NOT metabolized
[11]
  Bacterial Biotransformation: Compound NOT metabolized

## CCN(C)C(=O)Oc1cccc([C@H](C)N(C)C)c1.O=C(O)C(O)C(O)C(=O)O [RIVASTIGMINE TARTRATE]
[1]
  Bacterial Biotransformation: Compound NOT metabolized
[2]
  Bacterial Biotransformation: Compound NOT metabolized
[3]
  Bacterial Biotransformation: Compound NOT metabolized
[7]
  Bacterial Biotransformation: Compound NOT metabolized
[10]
  Bacterial Biotransformation: Compound NOT metabolized
[15]
  Bacterial Biotransformation: Compound NOT metabolized
[11]
  Bacterial Biotransformation: Compound NOT metabolized

## O=C([O-])C[C@H](O)C[C@H](O)/C=C/c1c(C2CC2)nc2ccccc2c1-c1ccc(F)cc1.O=C([O-])C[C@H](O)C[C@H](O)/C=C/c1c(C2CC2)nc2ccccc2c1-c1ccc(F)cc1.[Ca+2] [PITAVASTATIN CALCIUM]
[1]
  Bacterial Biotransformation: Compound NOT metabolized
[2]
  Bacterial Biotransformation: Compound NOT metabolized
[14]
  Bacterial Biotransformation: Compound NOT metabolized
[3]
  Bacterial Biotransformation: Compound NOT metabolized
[5]
  Bacterial Biotransformation: Compound NOT metabolized
[7]
  Bacterial Biotransformation: Compound NOT metabolized
[10]
  Bacterial Biotransformation: Compound NOT metabolized
[15]
  Bacterial Biotransformation: Compound NOT metabolized
[11]
  Bacterial Biotransformation: Compound NOT metabolized

## COc1cc2nc(N3CCN(C(=O)c4ccco4)CC3)nc(N)c2cc1OC [PRAZOSIN]
[2]
  Bacterial Biotransformation: Compound NOT metabolized
[3]
  Bacterial Biotransformation: Compound NOT metabolized
[5]
  Bacterial Biotransformation: Compound NOT metabolized
[6]
  Bacterial Biotransformation: Compound NOT metabolized
[7]
  Bacterial Biotransformation: Compound NOT metabolized
[10]
  Bacterial Biotransformation: Compound NOT metabolized
[11]
  Bacterial Biotransformation: Compound NOT metabolized

## O=C(O)CCC(=O)O.O=C(O[C@H]1CN2CCC1CC2)N1CCc2ccccc2[C@@H]1c1ccccc1 [SOLIFENACIN SUCCINATE]
[1]
  Bacterial Biotransformation: Compound NOT metabolized
[2]
  Bacterial Biotransformation: Compound NOT metabolized
[3]
  Bacterial Biotransformation: Compound NOT metabolized
[7]
  Bacterial Biotransformation: Compound NOT metabolized
[10]
  Bacterial Biotransformation: Compound NOT metabolized
[15]
  Bacterial Biotransformation: Compound NOT metabolized
[11]
  Bacterial Biotransformation: Compound NOT metabolized

## CN(C/C=C/C#CC(C)(C)C)Cc1cccc2ccccc12 [TERBINAFINE]
[1]
  Bacterial Biotransformation: Compound NOT metabolized
[2]
  Bacterial Biotransformation: Compound NOT metabolized
[3]
  Bacterial Biotransformation: Compound NOT metabolized
[7]
  Bacterial Biotransformation: Compound NOT metabolized
[10]
  Bacterial Biotransformation: Compound NOT metabolized
[15]
  Bacterial Biotransformation: Compound NOT metabolized
[11]
  Bacterial Biotransformation: Compound NOT metabolized

## OC(CCN1CCCCC1)(c1ccccc1)C1CCCCC1 (configuration not stated) [TRIHEXYPHENIDYL]
[2]
  Bacterial Biotransformation: Compound NOT metabolized
[12]
  Bacterial Biotransformation: Compound NOT metabolized
[3]
  Bacterial Biotransformation: Compound NOT metabolized
[5]
  Bacterial Biotransformation: Compound NOT metabolized
[7]
  Bacterial Biotransformation: Compound NOT metabolized
[8]
  Bacterial Biotransformation: Compound NOT metabolized
[9]
  Bacterial Biotransformation: Compound NOT metabolized
[10]
  Bacterial Biotransformation: Compound NOT metabolized
[11]
  Bacterial Biotransformation: Compound NOT metabolized

## COc1ccc(CN2CCNCC2)c(OC)c1OC.Cl.Cl [TRIMETAZIDINE DIHYDROCHLORIDE]
[1]
  Bacterial Biotransformation: Compound NOT metabolized
[2]
  Bacterial Biotransformation: Compound NOT metabolized
[3]
  Bacterial Biotransformation: Compound NOT metabolized
[7]
  Bacterial Biotransformation: Compound NOT metabolized
[10]
  Bacterial Biotransformation: Compound metabolized
[15]
  Bacterial Biotransformation: Compound NOT metabolized
[11]
  Bacterial Biotransformation: Compound NOT metabolized

## O=C1C(CC[S+]([O-])c2ccccc2)C(=O)N(c2ccccc2)N1c1ccccc1 (configuration not stated) [SULFINPYRAZONE]
[1]
  Bacterial Biotransformation: Compound NOT metabolized
[2]
  Bacterial Biotransformation: Compound NOT metabolized
[3]
  Bacterial Biotransformation: Compound NOT metabolized
[5]
  Bacterial Biotransformation: Compound NOT metabolized
[6]
  Bacterial Biotransformation: Compound NOT metabolized
[7]
  Bacterial Biotransformation: Compound NOT metabolized
[10]
  Bacterial Biotransformation: Compound NOT metabolized
[15]
  Bacterial Biotransformation: Compound metabolized
[11]
  Bacterial Biotransformation: Compound NOT metabolized

## CC(N)C12CC3CC(CC(C3)C1)C2 (configuration not stated) [RIMANTADINE]
[1]
  Bacterial Biotransformation: Compound NOT metabolized
[2]
  Bacterial Biotransformation: Compound NOT metabolized
[3]
  Bacterial Biotransformation: Compound NOT metabolized
[7]
  Bacterial Biotransformation: Compound NOT metabolized
[10]
  Bacterial Biotransformation: Compound NOT metabolized
[15]
  Bacterial Biotransformation: Compound NOT metabolized
[11]
  Bacterial Biotransformation: Compound NOT metabolized

## OCCOCCN1CCN(C2=Nc3ccccc3Sc3ccccc32)CC1 [QUETIAPINE]
[1]
  Bacterial Biotransformation: Compound NOT metabolized
[2]
  Bacterial Biotransformation: Compound NOT metabolized
[12]
  Bacterial Biotransformation: Compound NOT metabolized
[13]
  Bacterial Biotransformation: Compound NOT metabolized
[3]
  Bacterial Biotransformation: Compound NOT metabolized
[6]
  Bacterial Biotransformation: Compound NOT metabolized
[7]
  Bacterial Biotransformation: Compound NOT metabolized
[8]
  Bacterial Biotransformation: Compound NOT metabolized
[9]
  Bacterial Biotransformation: Compound NOT metabolized
[11]
  Bacterial Biotransformation: Compound NOT metabolized

## COC1=CC(=O)C[C@@H](C)[C@]12Oc1c(Cl)c(OC)cc(OC)c1C2=O [GRISEOFULVIN]
[1]
  Bacterial Biotransformation: Compound NOT metabolized
[13]
  Bacterial Biotransformation: Compound NOT metabolized
[3]
  Bacterial Biotransformation: Compound NOT metabolized
[4]
  Bacterial Biotransformation: Compound metabolized
[6]
  Bacterial Biotransformation: Compound NOT metabolized
[7]
  Bacterial Biotransformation: Compound NOT metabolized
[9]
  Bacterial Biotransformation: Compound NOT metabolized
[15]
  Bacterial Biotransformation: Compound NOT metabolized
[11]
  Bacterial Biotransformation: Compound NOT metabolized

From ChEMBL document CHEMBL5303573, “Mapping human microbiome drug metabolism by gut bacteria and their genes” (Nature, 2019)
